Experimental data from patent US20120129721A1, “URINARY GM2 ACTIVATOR PROTEIN AS A MARKER OF ACUTE RENAL FAILURE OR THE RISK OF […] RENAL FAILURE” (priority 2009, published 2012).
Read-outs that look alike come from different tables or passages of the source.

Columns and labels:
[1] = system: GM2 activator protein (GM2AP) in urine
From the text: (§1) In-house bred, female Wistar rats weighing 190-230 g were divided in the following experimental groups (FIG. 1): (i) Control: rats treated i.p. during 7-13 days with saline (0.9% NaCl), once daily.
(§2) For the whole experiment, rats were individually allocated in metabolic cages under temperature and humidity controlled conditions. Animals were allowed to eat regular chow and drink water ad libitum. At different times, 24-hour urine and blood samples were obtained. Urine was collected in graduated vessels supplemented with 100 μL of 0.1% sodium azide and 1 ml oil to prevent contamination and evaporation, respectively. Subsequently, urine was cleared by centrifugation at 1,175×g, aliquoted and stored at −80° C. Blood was drawn from a small incision in the tail and collected in heparinised capillaries. These were immediately centrifuged at 12,000×g and plasma was stored at −80° C. At the end of the experiment, rats were anesthetized with sodium pentobarbital (10 mg/kg). The kidneys were perfused with heparinised saline through the abdominal aorta, and they were immediately dissected. The right kidney and one half of the left one were swiftly frozen by immersion in liquid nitrogen, and stored at −80° C. Eventually, they were used for Western blot studies. For such a purpose, frozen tissues were homogenized under freezing conditions by hammer-smashing, until a fine powder was obtained. The powder was also kept at −80° C. The second half of the left kidney was immersed in 3.7% paraformaldehyde at 4° C. during 14-16 hours. After it, tissue samples were processed for immunohistochemical studies.
Protein extracts were obtained from 100 mg tissue homogenate powder, prepared by homogenizing the kidneys with a tissue mixer (Ultra-Turrax T8, IKA®-Werwe) at 4° C. in homogenization buffer (140 mM NaCl, 20 mM Tris-HCl pH=7.5, 0.5 Methylenediaminetetraacetic acid—EDTA-, 10% glycerol, 1% Igepal CA-630, 1 μg/mL aprotinin, 1 μg/mL leupeptin, 1 μg/mL pepstatin A, 1 mM phenylmethylsulphonyl fluoride—PMSF-). Tissue homogenates were centrifuged at 22,000 g during 15 minutes at 4° C. Supernatants were collected. Protein concentration was measured with a commercial kit (BioRad) based on the Lowry method. 50 μg total protein from tissue extracts or 20 μL cleared urine from each sample were separated by electrophoresis in 10-15% acrylamide gels (Mini Protean II system, BioRad). Immediately, proteins were electrically transferred to an Immobilon-P membrane (Millipore). […]
Protein concentration was determined by the Bradford method.

[2] = system: PAI-1, KIM-1 and vimentin in renal tissue; test: Western blot of renal tissue homogenates for markers of tissue damage and repair
From the text: as §1, §2
(§3) Protein extracts were obtained from 100 mg tissue homogenate powder, prepared by homogenizing the kidneys with a tissue mixer (Ultra-Turrax T8, IKA®-Werwe) at 4° C. in homogenization buffer (140 mM NaCl, 20 mM Tris-HCl pH=7.5, 0.5 Methylenediaminetetraacetic acid—EDTA-, 10% glycerol, 1% Igepal CA-630, 1 μg/mL aprotinin, 1 μg/mL leupeptin, 1 μg/mL pepstatin A, 1 mM phenylmethylsulphonyl fluoride—PMSF-). Tissue homogenates were centrifuged at 22,000 g during 15 minutes at 4° C. Supernatants were collected. Protein concentration was measured with a commercial kit (BioRad) based on the Lowry method. 50 μg total protein from tissue extracts or 20 μL cleared urine from each sample were separated by electrophoresis in 10-15% acrylamide gels (Mini Protean II system, BioRad). Immediately, proteins were electrically transferred to an Immobilon-P membrane (Millipore). After blocking the membrane to avoid unspecific binding, membranes were probed with antibodies against KIM-1 (R&D Systems), bone morphogenetic protein-7 (BMP-7, Santa Cruz Biotechnology), plasminogen activator inhibitor-1 (PAI-1, BD Biosciences), vimentin (Dako Denmark) and GM2 activator protein (GM2AP, see above).

[3] = system: Wistar rats; test: Renal function characterization (plasma creatinine, BUN, urinary protein and NAG excretion) of gentamicin-treated rats; conditions: for BUN concentration: vs control
From the text: as §1, §2
(§4) Plasma and urine concentration of creatinine and blood urea nitrogen (BUN) were determined by an automated analysis system (Reflotron®, Roche Diagnostics, Barcelona, Spain) and commercial reactive strips (Roche Diagnostics, Barcelona, Spain), using 32 μL of plasma and urine. This method has a lower detection limit of 0.5 mg/dL for creatinine. Samples reading under 0.5 mg/dL creatinine were head-to-head re-assayed by the colorimetric method of Jaffe (Hervey, 1953. Nature, 171: 1125).
(§5) Urine protein concentration (mg/mL) was measured by the Bradford method (39). Daily protein excretion (mg/day) was obtained by multiplying urine protein concentration by the 24-hour urine flow (mL/day).
(§6) Urine NAG activity (arbitrary units, AU/mL), as an estimation of urine NAG concentration, was measured by a commercial enzymatic test (Roche Diagnostics, Barcelona, Spain) following the manufacturer's instructions. Urine NAG activity was converted into daily NAG excretion (AU/day) by multiplying urine NAG activity by 24-hour urine flow (mL/day).

[4] = system: Wistar rats; test: Time course of markers of nephrotoxicity under gentamicin 150 mg/kg/day
From the text: as §1, §2, §4, §5, §6, §3

[5] = system: Wistar rats; test: Survival rate and body weight evolution of rats treated with gentamicin; assay type: in vivo; conditions: gentamicin 150 mg/kg/day (G-150), 7 days
[6] = system: Wistar rats; test: Kidney histology (haematoxylin and eosin); assay type: in vivo
Protocol: Eventually, they were used for Western blot studies. […] The powder was also kept at −80° C. […] After it, tissue samples were processed for immunohistochemical studies.
Kidneys were kept in p-formaldehyde overnight at 4° C. Then, paraffin blocks were made and 5-μm tissue sections were cut and stained with hematoxilin and eosin. Photographs were taken under an Olympus BX51 microscope connected to an Olympus DP70 colour, digital camera.

[7] = system: GM2 activator protein (GM2AP) in urine; test: Urinary GM2AP (Western blot) and renal function in humans treated with gentamicin; assay type: in vivo; conditions: hospitalized patients under gentamicin regime for 2 or 3 days vs untreated controls
From the text: Supernatants were collected.
As controls, the urine from age- and sex-matched individuals not receiving gentamicin was used.

[8] = G-150, after inception of treatment

N.N.[Cl][Pt][Cl] [cisplatin]
urinary GM2AP (Western blot) ([1]; two doses of cisplatin 10 mg/kg on first and third days, urine 4 days after treatment inception): high levels

gentamicin
renal level of KIM-1 ([2]; G-50, 7 days, vs control): no increment
renal level of PAI-1 ([2]; G-50, 7 days, vs control): no increment
renal level of vimentin ([2]; G-50, 7 days, vs control): no increment
renal level of KIM-1 ([2]; G-150, 7 days): clear increase
renal level of PAI-1 ([2]; G-150, 7 days): clear increase
renal level of vimentin ([2]; G-150, 7 days): clear increase
nephrotoxic effect (pilot dose titration) ([3]; 6 daily doses of 50 mg/kg/day (G-50)): no signs of nephrotoxicity
nephrotoxic effect (pilot dose titration) ([3]; 6 daily doses of 150 mg/kg/day (G-150)): marked renal failure
BUN concentration ([3]; G-50, 7 days): not modified
BUN concentration ([3]; G-150, 7 days): profoundly altered
day by which BUN concentration was increased [4, 8]: 4 days
day by which proteinuria was increased [4, 8]: 4 days
day at which urinary level of GM2AP started to increase ([4]; G-150, urine, Western blot): 1 days
day by which urinary level of KIM-1 was increased ([4]; G-150, urine, Western blot): 4 days
day by which urinary level of PAI-1 was increased ([4]; G-150, urine, Western blot): 4 days
time from beginning of administration at which GM2AP is detected by Western blot ([4]; gentamicin 150 mg/kg/day, urine): 24 h
body weight [5]: body weight loss
death rate [5]: ~50%
level of GM2AP in urine (Western blot) ([1]; G-50, 7 days, vs control): differential level
GM2AP in urine (differential proteomics, 2D-electrophoresis) ([1]; G-50, 7 days, absent in control urine): highly expressed
level of GM2AP in urine (Western blot) ([1]; G-150, 7 days, overt renal failure): increased
renal histology ([6]; G-50, 7 days, vs control): no gross tissue alterations
renal histology ([6]; G-150, 7 days): massive tubular necrosis
urinary level of GM2AP (Western blot) [7]: clearly higher
